Measured values as given in patent US20250297015A1, “DRUG CONDITIONING REGIMEN FOR SICKLE CELL DISEASE” (NEW YORK BLOOD CENTER, INC., priority 2022, published 2025).
Entries after “also recorded” stand apart in the source; their conditions may differ.

Legend:
Assay type in all cases: in vivo
[1] = test system: peripheral blood hematopoietic progenitor cells (HPC), LSKF cells; test: Mobilization of peripheral blood hematopoietic progenitor cells (LSKF) in SCD mouse model
Procedure: (§1) This study uses a SCD mouse model, SS Townes mice, to evaluate the effects of GBT-1118, the murine analog of voxelotor, to mobilize hematopoietic progenitor cells (HPC). GBT-1118 (approximately 16 mg/mouse/day) was administered via chow (4 grams of GBT-1118 per kg of chow) daily for a month. The mice were then administered a single dose of plerixafor (10 mg/kg) via subcutaneous injection. […] Peripheral blood was collected in all groups prior to and two-and three-weeks post treatment with GBT-1118 (or control) to assess hemoglobin (Hgb), hematocrit (Hct), aged neutrophils, and circulating HPCs. One to two hrs after plerixafor, peripheral blood was collected for circulating HPC (LSKF) enumeration. Assay results in the groups are compared using ANOVA or Kruskal-Wallis testing.
Gating with and without CD45^+ was performed due to the erythroid hyperplasia seen in SCD, where CD45^+ expression decreases along with erythroid maturation (Boulais et al. Immunity 49:627-639, 2018) and the degree of erythroid hyperplasia in each mouse was unknown. The percentage of CD45^+ cells ranged from 60-80% per sample. […] As red cell transfusion tends to decrease circulating hematopoietic stem cells (HSCs) (Tang A et al, Blood 2021), this may be due to the increased bone marrow HSCs (FIGS. 4A and 4B) spilling into peripheral blood due to residual mesenchymal stem cell dysfunction.

[2] = test system: peripheral blood inflammatory markers; test: Peripheral blood inflammatory markers (aged neutrophils, sVCAM-1, P-selectin, E-selectin) in SCD mouse model
Procedure: as §1
(§2) Also evaluated were bone marrow HPCs and hematopoietic stem cells (HSCs) with and without plerixafor and peripheral blood inflammatory markers (aged neutrophils, sVAM-1, P-selectin, and E-selectin) with and without plerixafor.
There is an increase in the aged neutrophil population in SCD.
There is evidence that SCD is associated with a chronic inflammatory state. Therefore, inflammatory markers (sVCAM-1, P-selectin, and E-selectin) in the peripheral blood of mice treated with GBT-1118 alone or with plerixafor were evaluated. […] This increase may be related to increased WBC and absolute neutrophil counts (ANC). Plasma P-selectin and E-selectin were not increased with GBT-1118 alone or with plerixafor (FIGS. 6B and 6C).

[3] = test system: bone marrow HPCs and hematopoietic stem cells (HSCs); test: Bone marrow HPCs and HSCs with and without plerixafor in SCD mouse model; conditions: SS Townes mice
Procedure: as §1, §2
Bone marrow LSK (Lin^−Sca1^+ckit^+) is a less HSC-specific measure than bone marrow HSC (Lin^−Sca1^+ckit+CD48^−CD150^+); the markers Flt3 and CD135 are not present in bone marrow as they are in peripheral blood.

[4] = test system: SS Townes mice; test: Peripheral blood response (Hb, Hct, reticulocytes, WBC) to GBT-1118 in SCD mouse model
Procedure: as §1

Structure (SMILES): O=Cc1c(O)cccc1OC[C@@H]1CCCCN1C(=O)c1cccnc1 [GBT-1118]
- peripheral blood LSKF cell concentration ([1]; SS Townes mice, compared to control (FIG. 3B)): significantly increased
- percentage of peripheral blood LSKF (Lin-Sca1+ckit+Flt3-CD135-) cells mobilized ([1]; with CD45+ gating, plerixafor mobilization, 1-2 h after plerixafor, compared to control animals (FIGS. 3A and 3C)): higher percentage
- plasma P-selectin ([2]; GBT-1118 alone (FIG. 6B)): not increased
- plasma E-selectin ([2]; GBT-1118 alone (FIG. 6C)): not increased
- plasma P-selectin ([2]; GBT-1118 with plerixafor (FIG. 6B)): not increased
- plasma E-selectin ([2]; GBT-1118 with plerixafor (FIG. 6C)): not increased
- plasma sVCAM-1 ([2]; after GBT-1118 treatment (FIG. 6A)): small but significant increase
- peripheral blood aged neutrophils (CXCR4high CD62Llow) ([2]; post-mobilization with plerixafor, GBT-1118 versus control (FIG. 5A-B)): not statistically significant
- bone marrow HSCs, as % of Lin- cells ([3]; GBT-1118 alone versus control (FIG. 4A)): significantly increased
- total number of bone marrow HSC per femur ([3]; GBT-1118 versus control (FIG. 4B)): trend towards an increase; also recorded: trend towards increased
- hemoglobin (Hb) ([4]; GBT-1118 via chow approx. 16 mg/mouse/day, peripheral blood before vs 2 and 3 weeks after treatment (FIG. 1A)): increase
- hematocrit (Hct) ([4]; GBT-1118 via chow, before vs 2 and 3 weeks after treatment (FIG. 1B)): increase
- percentage of reticulocytes (retic %) ([4]; GBT-1118 via chow, before vs 2 and 3 weeks after treatment (FIG. 1C)): decrease
- number of white blood cells (WBC) ([4]; GBT-1118 via chow, before vs 2 and 3 weeks after treatment (FIG. 1D)): essentially unchanged
